Laboratory results published in the Deep4Chem optical property database.
Each block holds one compound with its values, some of them ahead of it.

Test: solvent given as SMILES

absorption maximum (in C1CCOC1): 393 nm
absorption maximum (in CC#N): 391 nm
absorption maximum (in CS(C)=O): 400 nm
absorption maximum (in ClCCl): 394 nm
Compound: C(=C\c1cnccn1)/c1ccc(N(c2ccccc2)c2ccccc2)cc1

absorption maximum (in ClCCl): 384 nm
Compound: CCOc1ccc(/C=C/c2nc(N3CCOCC3)c3c([n+]2[O-])CCCC3)cc1

absorption maximum (in CO): 425 nm
Compound: c1ccc(N(c2ccccc2)c2ccc(-c3ncc(-c4ccc(-c5ccc(-c6cnc(-c7ccc(N(c8ccccc8)c8ccccc8)cc7)s6)s5)s4)s3)cc2)cc1

absorption maximum (in ClCCl): 377 nm
Compound: CC(C)(C)c1ccc(-n2c(-c3ccc(N(c4ccc(-c5ccc(N(c6ccc(-c7nc8c9ccccc9c9ccccc9c8n7-c7ccc(C(C)(C)C)cc7)cc6)c6ccc(-c7nc8c9ccccc9c9ccccc9c8n7-c7ccc(C(C)(C)C)cc7)cc6)cc5)cc4)c4ccc(-c5nc6c7ccccc7c7ccccc7c6n5-c5ccc(C(C)(C)C)cc5)cc4)cc3)nc3c4ccccc4c4ccccc4c32)cc1

absorption maximum (in CCCCCC): 644 nm
Compound: CC(C)[Si](C#Cc1c2cc3ccccc3cc2c(C#C[Si](C(C)C)(C(C)C)C(C)C)c2nc3c(ccc4cc5ccccc5cc43)nc12)(C(C)C)C(C)C

absorption maximum (in ClCCl): 338 nm
Compound: COc1ccc(/C=C/c2ccncn2)cc1

Compound: CC(C)(C)c1cc2ccc3cc(C(C)(C)C)cc4c3c2c(c1)c(=O)n1c4nc2c3ccccc3c3ccccc3c21
absorption maximum (in C1CCOC1): 354 nm
absorption maximum (in CC#N): 365 nm
absorption maximum (in CC(C)=O): 365 nm
absorption maximum (in CCCCCC): 367 nm
absorption maximum (in CCO): 366 nm
absorption maximum (in CCOC(C)=O): 366 nm
absorption maximum (in CO): 362 nm
absorption maximum (in CS(C)=O): 368 nm
absorption maximum (in Cc1ccc(C)cc1): 368 nm
absorption maximum (in ClC(Cl)(Cl)Cl): 369 nm
absorption maximum (in ClC(Cl)Cl): 368 nm
absorption maximum (in c1ccccc1): 369 nm

absorption maximum (in O): 265 nm
Compound: N=C(N)N

absorption maximum (in CC#N): 368.93 nm
Compound: C[n+]1ccn(CCCCc2ccc3c(c2)c2ccccc2n3-c2cc(C#N)c(C#N)cc2-n2c3ccccc3c3cc(CCCCn4cc[n+](C)c4)ccc32)c1

Compound: Cc1c(C)c(B(c2c(C)c(C)c(N3c4ccccc4Oc4ccccc43)c(C)c2C)c2c(C)c(C)c(N3c4ccccc4Oc4ccccc43)c(C)c2C)c(C)c(C)c1C#N
absorption maximum (in c1ccc([Si](c2ccccc2)(c2ccc(-n3c4ccccc4c4ccccc43)cc2)c2ccc(-n3c4ccccc4c4ccccc43)cc2)cc1): 408 nm

absorption maximum (in ClCCl): 402 nm
Compound: CCCCn1c2ccccc2c2cc(C#Cc3ccc4ccc5cccc6ccc3c4c56)ccc21

absorption maximum (in CC#N): 328 nm
Compound: CCCCNc1nn(-c2ccc(OC)cc2)nc1C#N

Compound: CN1c2ccccc2C(O)(c2ccccc2)c2cc([N+](=O)[O-])ccc21 (stereo not drawn)
absorption maximum (in C1CCOC1): 392.4 nm
absorption maximum (in CC#N): 396.9 nm
absorption maximum (in CCO): 393.7 nm
absorption maximum (in CO): 396 nm
absorption maximum (in CS(C)=O): 410 nm
absorption maximum (in Cc1ccccc1): 381.5 nm

absorption maximum (in CS(C)=O): 401 nm
Compound: Cc1ccc(-c2cc(/C=C/c3ccc(N(c4ccccc4)c4ccccc4)cc3)c(C#N)c(N3CCCCC3)c2)cc1

absorption maximum (in CCCCCC): 326 nm
absorption maximum (in CCCCCCCCO): 327 nm
absorption maximum (in CCCCO): 326 nm
absorption maximum (in CCCO): 325 nm
absorption maximum (in CCO): 324 nm
absorption maximum (in CCOC(C)=O): 326 nm
absorption maximum (in CN(C)C=O): 328 nm
absorption maximum (in CO): 324 nm
absorption maximum (in ClC(Cl)Cl): 327 nm
Compound: COc1ccc2cc(-c3ccc(C(F)(F)F)cc3)oc(=O)c2c1

absorption maximum (in C1CCCCC1): 402 nm
absorption maximum (in CC#N): 403 nm
absorption maximum (in ClC(Cl)Cl): 402 nm
Compound: c1cc2ccc1CCCc1cc3c(cc1CCCc1ccc(c4nsnc14)CCC3)CCC2

Compound: CCN(CC)c1ccc(-c2nc3c(c4c2-c2ccc(C#N)cc2CC4)-c2ccc(C#N)cc2CC3)cc1
absorption maximum (in C1CCOC1): 364 nm
absorption maximum (in CC#N): 360 nm
absorption maximum (in CCCCCC): 369 nm
absorption maximum (in CCOC(C)=O): 358 nm
absorption maximum (in CO): 360 nm
absorption maximum (in CS(C)=O): 375 nm
absorption maximum (in Cc1ccccc1): 368 nm
absorption maximum (in ClCCl): 363 nm

absorption maximum (in CO): 568 nm
Compound: C#CCOc1ccc(/C=C/C2=[N+]3C(=C(c4ccc(N(CC)CC)cc4)c4c(C)cc(C)n4[B-]3(F)F)C(C)=C2)cc1

absorption maximum (in C1COCCO1): 344 nm
absorption maximum (in CC#N): 347 nm
absorption maximum (in CO): 347 nm
absorption maximum (in ClCCl): 351 nm
Compound: COC(=O)c1nc2c(N(C)C)nc(N(C)C)nc2n1Cc1ccccc1
